Each block holds one compound with its values, some of them ahead of it. The source made the active and inactive calls.
Tests used:
Neuromedin-K receptor [1] = target: T1, Neuromedin-K receptor (Homo sapiens, UniProt P29371); assay: Displacement of [125I]neurokinin B from cloned human NK3 receptor expressed in CHO cells; type: cell-based
T1 sequence (P29371 whole entry): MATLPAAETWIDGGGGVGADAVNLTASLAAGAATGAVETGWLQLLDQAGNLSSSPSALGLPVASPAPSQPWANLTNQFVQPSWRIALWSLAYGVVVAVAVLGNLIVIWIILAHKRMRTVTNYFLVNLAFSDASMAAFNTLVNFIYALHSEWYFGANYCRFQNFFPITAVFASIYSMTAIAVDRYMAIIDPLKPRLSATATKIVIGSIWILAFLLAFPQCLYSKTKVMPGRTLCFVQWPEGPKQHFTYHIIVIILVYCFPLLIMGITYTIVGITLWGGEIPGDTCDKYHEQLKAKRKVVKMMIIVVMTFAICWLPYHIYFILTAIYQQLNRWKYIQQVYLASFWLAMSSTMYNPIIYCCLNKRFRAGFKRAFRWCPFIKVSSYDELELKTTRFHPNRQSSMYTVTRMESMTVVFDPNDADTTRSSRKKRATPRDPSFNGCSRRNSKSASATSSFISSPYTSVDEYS

[2] = target: T2, Neuromedin-K receptor (Homo sapiens) (UniProt P29371); assay: Displacement of [125I]neurokinin B from cloned human NK3 receptor expressed in CHO cells at 1 uM; type: cell-based; conditions: filed as antagonist
T2 sequence (whole entry): T1 sequence (P29371 whole entry)

PXR (NR1I2) = target: T3, PXR (NR1I2) (Homo sapiens, UniProt O75469); assay: Increase in human PXR activation expressed in CHO cells relative to rifampicin; type: cell-based; conditions: CHO cells expressing human PXR, read-out: Activity
T3 sequence (O75469 whole entry): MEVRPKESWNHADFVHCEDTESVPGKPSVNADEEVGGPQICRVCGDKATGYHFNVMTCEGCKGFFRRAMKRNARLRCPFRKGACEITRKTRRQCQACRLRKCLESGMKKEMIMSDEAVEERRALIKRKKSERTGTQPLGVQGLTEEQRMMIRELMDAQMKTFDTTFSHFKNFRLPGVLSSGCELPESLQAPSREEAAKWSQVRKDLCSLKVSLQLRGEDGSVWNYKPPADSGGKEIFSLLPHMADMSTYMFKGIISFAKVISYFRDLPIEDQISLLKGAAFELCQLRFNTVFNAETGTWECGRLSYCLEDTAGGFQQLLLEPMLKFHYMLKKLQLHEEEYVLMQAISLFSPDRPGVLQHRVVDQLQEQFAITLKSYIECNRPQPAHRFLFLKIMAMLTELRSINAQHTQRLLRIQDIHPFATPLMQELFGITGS

[3] = Metabolic stability in rat liver microsomes after 15 mins; type: ADME, Microsome; conditions: read-out: Stability
Gerbil, jird [4] = assay: Plasma concentration in gerbil at 10 mg/kg, po; type: ADME, organism-based; set-up: dose 10 mg/kg, route oral; conditions: meriones, in vivo
Gerbil, jird [5] = assay: Plasma concentration in gerbil at 75 mg/kg, po; type: ADME, organism-based; set-up: dose 75 mg/kg, route oral; conditions: meriones, in vivo
[6] = Half life in dog; type: ADME, organism-based, Canis lupus familiaris; conditions: in vivo
Salmonella typhimurium [7] = assay: Effect on Salmonella Typhimurium mutation in presence of liver microsomal enzymes by Ames assay; type: functional, organism-based; conditions: Salmonella enterica subsp. enterica serovar Typhimurium
[8] = target: T2, Neuromedin-K receptor (Homo sapiens); assay: Activity at human NK3 receptor assessed as stimulation of calcium mobilization in CHO cells up to 10 uM; type: functional, cell-based
[9] = target: Voltage-gated inwardly rectifying potassium channel KCNH2 (Homo sapiens, UniProt Q12809); assay: Inhibition of hERG; type: toxicity
Voltage-gated inwardly rectifying potassium channel KCNH2, sequence (Q12809 whole entry): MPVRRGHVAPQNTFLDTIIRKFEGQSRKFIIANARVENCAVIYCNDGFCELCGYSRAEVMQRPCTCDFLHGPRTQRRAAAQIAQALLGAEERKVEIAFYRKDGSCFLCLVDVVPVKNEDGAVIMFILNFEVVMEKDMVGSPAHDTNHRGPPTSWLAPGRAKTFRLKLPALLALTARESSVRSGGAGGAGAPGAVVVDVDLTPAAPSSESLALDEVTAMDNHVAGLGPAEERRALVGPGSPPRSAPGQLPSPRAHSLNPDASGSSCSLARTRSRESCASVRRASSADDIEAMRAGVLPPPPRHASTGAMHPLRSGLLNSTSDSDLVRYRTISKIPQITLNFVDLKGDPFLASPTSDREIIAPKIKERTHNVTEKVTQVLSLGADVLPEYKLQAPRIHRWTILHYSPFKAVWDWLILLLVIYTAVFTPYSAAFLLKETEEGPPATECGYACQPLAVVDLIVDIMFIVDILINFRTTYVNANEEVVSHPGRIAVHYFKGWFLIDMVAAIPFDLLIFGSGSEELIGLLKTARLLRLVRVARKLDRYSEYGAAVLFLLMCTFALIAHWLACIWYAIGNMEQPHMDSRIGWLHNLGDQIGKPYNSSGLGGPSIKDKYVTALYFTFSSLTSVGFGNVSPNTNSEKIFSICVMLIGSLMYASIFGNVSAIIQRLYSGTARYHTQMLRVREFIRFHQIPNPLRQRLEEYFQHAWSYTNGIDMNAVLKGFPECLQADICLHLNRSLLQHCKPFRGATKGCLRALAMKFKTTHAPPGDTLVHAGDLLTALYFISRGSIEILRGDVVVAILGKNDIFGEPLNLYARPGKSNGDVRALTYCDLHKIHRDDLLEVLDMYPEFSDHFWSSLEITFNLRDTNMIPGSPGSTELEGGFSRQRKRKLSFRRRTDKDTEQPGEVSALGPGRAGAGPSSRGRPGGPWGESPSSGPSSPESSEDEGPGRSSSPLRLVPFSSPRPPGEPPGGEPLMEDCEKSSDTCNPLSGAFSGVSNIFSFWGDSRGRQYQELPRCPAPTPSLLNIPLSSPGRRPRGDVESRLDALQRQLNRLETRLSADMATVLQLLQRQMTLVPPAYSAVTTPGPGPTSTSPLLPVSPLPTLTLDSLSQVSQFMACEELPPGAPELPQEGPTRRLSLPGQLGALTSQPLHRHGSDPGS

Neuromedin-K receptor [10] = target: T4, Neuromedin-K receptor (Rattus norvegicus, UniProt P16177); assay: Binding affinity to rat NK3 receptor
T4 sequence (P16177 whole entry): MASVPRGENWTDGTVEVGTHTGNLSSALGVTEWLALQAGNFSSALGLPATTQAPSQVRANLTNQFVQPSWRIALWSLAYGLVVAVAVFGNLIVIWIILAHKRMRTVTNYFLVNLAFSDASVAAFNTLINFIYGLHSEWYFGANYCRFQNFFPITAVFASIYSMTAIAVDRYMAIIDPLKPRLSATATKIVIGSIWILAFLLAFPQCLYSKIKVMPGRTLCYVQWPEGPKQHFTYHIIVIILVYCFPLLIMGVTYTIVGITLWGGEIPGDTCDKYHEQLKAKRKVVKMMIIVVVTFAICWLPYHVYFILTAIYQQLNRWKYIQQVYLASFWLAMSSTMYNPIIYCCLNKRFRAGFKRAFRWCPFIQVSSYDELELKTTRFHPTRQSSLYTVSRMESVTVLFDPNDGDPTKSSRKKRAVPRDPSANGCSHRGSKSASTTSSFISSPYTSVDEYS

[11] = Oral bioavailability in dog; type: ADME, organism-based, Canis lupus familiaris; conditions: in vivo
[12] = target: T2, Neuromedin-K receptor (Homo sapiens); assay: Activity at human NK3 receptor assessed as stimulation of inositol phosphate generation in CHO cells up to 10 uM; type: functional, cell-based
Cytochrome P450 2C9 = Cytochrome P450 2C9 (Homo sapiens, UniProt P11712); assay: Inhibition of CYP2C9 in human liver microsomes; type: ADME, Microsome
Cytochrome P450 2C9, sequence (P11712 whole entry): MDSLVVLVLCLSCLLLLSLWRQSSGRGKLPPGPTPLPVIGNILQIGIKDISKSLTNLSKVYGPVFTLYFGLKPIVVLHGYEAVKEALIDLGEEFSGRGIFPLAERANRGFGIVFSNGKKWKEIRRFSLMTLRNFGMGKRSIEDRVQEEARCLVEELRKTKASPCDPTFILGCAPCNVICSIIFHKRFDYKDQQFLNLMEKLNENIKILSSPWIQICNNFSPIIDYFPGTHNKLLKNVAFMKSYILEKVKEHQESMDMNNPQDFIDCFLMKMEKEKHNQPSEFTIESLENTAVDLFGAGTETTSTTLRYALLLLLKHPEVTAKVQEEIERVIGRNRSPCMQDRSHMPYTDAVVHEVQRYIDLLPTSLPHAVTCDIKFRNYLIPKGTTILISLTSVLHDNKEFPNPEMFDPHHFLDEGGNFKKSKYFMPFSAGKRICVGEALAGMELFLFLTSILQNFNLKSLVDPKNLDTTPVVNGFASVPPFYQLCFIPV

Hepatocyte = assay: Induction of CYP3A4 in human hepatocytes at 20 uM relative to rifampicin; type: functional, cell-based
Gerbil, jird [13] = assay: Plasma concentration in gerbil at 30 mg/kg, po; type: ADME, organism-based; set-up: dose 30 mg/kg, route oral; conditions: meriones, in vivo
Cytochrome P450 3A4 = Cytochrome P450 3A4 (Homo sapiens, UniProt P08684); assay: Inhibition of CYP3A4 in human liver microsomes; type: ADME, Microsome
Cytochrome P450 3A4, sequence (P08684 whole entry): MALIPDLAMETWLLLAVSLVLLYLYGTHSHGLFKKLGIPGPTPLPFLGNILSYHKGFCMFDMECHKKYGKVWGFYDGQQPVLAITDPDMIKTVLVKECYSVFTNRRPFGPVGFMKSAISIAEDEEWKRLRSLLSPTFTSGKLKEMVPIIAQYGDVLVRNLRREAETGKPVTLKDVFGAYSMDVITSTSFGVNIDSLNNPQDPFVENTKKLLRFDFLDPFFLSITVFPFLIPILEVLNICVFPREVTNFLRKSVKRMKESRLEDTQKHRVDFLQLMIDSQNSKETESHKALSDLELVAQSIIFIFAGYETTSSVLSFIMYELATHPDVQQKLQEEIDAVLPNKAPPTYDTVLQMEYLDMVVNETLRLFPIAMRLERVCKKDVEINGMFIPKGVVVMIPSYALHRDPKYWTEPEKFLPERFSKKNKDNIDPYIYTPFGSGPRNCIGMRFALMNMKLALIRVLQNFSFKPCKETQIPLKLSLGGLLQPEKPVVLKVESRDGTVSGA

Substance-K receptor = target: T5, Substance-K receptor (Homo sapiens, UniProt P21452); assay: Inhibition of human NK2 receptor
T5 sequence (P21452 whole entry): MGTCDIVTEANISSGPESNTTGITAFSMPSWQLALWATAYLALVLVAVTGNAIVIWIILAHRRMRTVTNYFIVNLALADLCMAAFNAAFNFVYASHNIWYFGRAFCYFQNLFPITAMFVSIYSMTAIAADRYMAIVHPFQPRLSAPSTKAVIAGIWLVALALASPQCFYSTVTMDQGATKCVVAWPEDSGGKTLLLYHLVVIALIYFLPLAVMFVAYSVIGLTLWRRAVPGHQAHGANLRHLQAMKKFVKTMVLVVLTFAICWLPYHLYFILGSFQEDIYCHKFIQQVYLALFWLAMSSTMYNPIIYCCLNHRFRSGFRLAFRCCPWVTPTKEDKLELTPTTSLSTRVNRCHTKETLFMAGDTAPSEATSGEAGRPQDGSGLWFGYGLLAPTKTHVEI

Escherichia coli [14] = assay: Effect on Escherichia coli mutation in absence of liver microsomal enzymes by Ames assay; type: functional, organism-based
[15] = Half life in rat; type: ADME, organism-based; conditions: in vivo
[16] = target: T2, Neuromedin-K receptor (Homo sapiens); assay: Activity at human NK3 receptor assessed as inhibition of eledoisin-induced inositol phosphate generation in CHO cells; type: functional, cell-based
Escherichia coli [17] = assay: Effect on Escherichia coli mutation in presence of liver microsomal enzymes by Ames assay; type: functional, organism-based
Salmonella typhimurium [18] = assay: Effect on Salmonella Typhimurium mutation in absence of liver microsomal enzymes by Ames assay; type: functional, organism-based; conditions: Salmonella enterica subsp. enterica serovar Typhimurium
[19] = Oral bioavailability in rat; type: ADME, organism-based; conditions: in vivo
Substance-P receptor = Substance-P receptor (Homo sapiens, UniProt P25103); assay: Inhibition of human NK1 receptor
Substance-P receptor, sequence (P25103 whole entry): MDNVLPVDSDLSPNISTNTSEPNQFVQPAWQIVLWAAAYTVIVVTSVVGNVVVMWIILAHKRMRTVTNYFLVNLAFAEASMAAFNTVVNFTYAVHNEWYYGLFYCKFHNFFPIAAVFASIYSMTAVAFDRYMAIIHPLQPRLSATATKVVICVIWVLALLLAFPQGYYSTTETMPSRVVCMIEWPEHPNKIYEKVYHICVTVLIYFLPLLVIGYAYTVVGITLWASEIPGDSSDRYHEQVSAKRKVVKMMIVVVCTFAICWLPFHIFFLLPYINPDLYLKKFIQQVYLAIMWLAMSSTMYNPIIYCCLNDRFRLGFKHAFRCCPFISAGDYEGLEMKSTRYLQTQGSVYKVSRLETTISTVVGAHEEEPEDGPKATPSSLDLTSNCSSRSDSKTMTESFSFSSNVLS

Cytochrome P450 2D6 = Cytochrome P450 2D6 (Homo sapiens, UniProt P10635); assay: Inhibition of CYP2D6 in human liver microsomes; type: ADME, Microsome
Cytochrome P450 2D6, sequence (P10635 whole entry): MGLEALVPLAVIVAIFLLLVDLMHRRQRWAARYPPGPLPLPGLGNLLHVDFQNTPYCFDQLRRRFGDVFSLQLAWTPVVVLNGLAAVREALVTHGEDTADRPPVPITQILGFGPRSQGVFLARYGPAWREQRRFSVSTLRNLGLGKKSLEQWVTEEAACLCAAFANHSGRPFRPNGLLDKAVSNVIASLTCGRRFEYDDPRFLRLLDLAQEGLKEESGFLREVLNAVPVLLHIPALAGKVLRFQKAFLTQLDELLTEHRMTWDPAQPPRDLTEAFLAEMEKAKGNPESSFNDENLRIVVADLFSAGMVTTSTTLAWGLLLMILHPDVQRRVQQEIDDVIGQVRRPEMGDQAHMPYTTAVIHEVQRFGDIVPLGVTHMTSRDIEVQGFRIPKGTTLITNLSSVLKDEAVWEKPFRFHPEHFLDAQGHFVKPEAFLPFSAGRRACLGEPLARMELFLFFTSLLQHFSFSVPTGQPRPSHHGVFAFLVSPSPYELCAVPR

SMILES: COc1c(-c2ccccc2)nc2ccccc2c1C(=O)NN(c1ccccc1)c1ccccc1
remaining at 0.25 h [3]: 65% | Emax (PXR (NR1I2)): 68% | IC50 (Neuromedin-K receptor [1]): 0.85 nM (antagonist) | concentration (Gerbil, jird [4]): 40 nM

SMILES: COc1c(-c2ccccc2)nc2ccccc2c1C(=O)NNc1ccccc1
IC50 (Neuromedin-K receptor [1]): 32 nM (antagonist)

SMILES: CC[C@H](NC(=O)c1c(O)c(-c2ccccc2)nc2ccccc12)c1ccccc1 [TALNETANT]
concentration (Gerbil, jird [5]): 3800 nM | Emax (PXR (NR1I2)): 62%

SMILES: COC(=O)N(NC(=O)c1c(OC)c(-c2ccccc2)nc2ccccc12)c1ccccc1F
IC50 (Neuromedin-K receptor [1]): 53 nM (antagonist)

SMILES: COC(=O)N(NC(=O)c1c(OC)c(-c2cccc(F)c2)nc2ccccc12)c1ccccc1
Emax (PXR (NR1I2)): 69% | IC50 (Neuromedin-K receptor [1]): 22 nM (antagonist)

SMILES: COC(=O)N(NC(=O)c1c(OC)c(-c2ccccc2)nc2ccccc12)c1ccccc1
remaining at 0.25 h [3]: 21% | half-life [6]: 3 h | Activity (Salmonella typhimurium [7]): inactive | Activity [8]: inactive | Ki [9]: > 8000 nM | Emax (PXR (NR1I2)): 49% | IC50 (Neuromedin-K receptor [10]): 66 nM (antagonist) | bioavailability [11]: 36% | Activity [12]: inactive | IC50 (Cytochrome P450 2C9): > 30000 nM | Activity (Hepatocyte): Active | concentration (Gerbil, jird [13]): 950 nM | IC50 (Cytochrome P450 3A4): 12000 nM | IC50 (Substance-K receptor): > 1000 nM | Activity (Escherichia coli [14]): inactive | half-life [15]: 4.6 h | Activity [16]: Dose-dependent effect | Activity (Escherichia coli [17]): inactive | Activity (Salmonella typhimurium [18]): inactive | bioavailability [19]: 43% | IC50 (Substance-P receptor): > 1000 nM | IC50 (Cytochrome P450 2D6): > 30000 nM

SMILES: COC(=O)N(NC(=O)c1c(OC)c(-c2ccccc2)nc2ccccc12)c1cccc(F)c1
Emax (PXR (NR1I2)): 54% | IC50 (Neuromedin-K receptor [1]): 7.4 nM (antagonist)

SMILES: COc1c(-c2ccccc2)nc2ccccc2c1C(=O)NN(C(=O)OCC(C)C)c1ccccc1
IC50 (Neuromedin-K receptor [1]): 190 nM (antagonist)

SMILES: COC(=O)N(NC(=O)c1c(OC)c(-c2ccccc2)nc2cc(F)ccc12)c1ccccc1
Emax (PXR (NR1I2)): 62% | IC50 (Neuromedin-K receptor [1]): 28 nM (antagonist)

SMILES: COC(=O)N(NC(=O)c1c(N)c(-c2ccccc2)nc2ccccc12)c1ccccc1
Emax (PXR (NR1I2)): 64% | IC50 (Neuromedin-K receptor [1]): 10 nM (antagonist)

SMILES: COc1c(-c2ccccc2)nc2ccccc2c1C(=O)NN(C)c1ccccc1
IC50 (Neuromedin-K receptor [1]): 57 nM (antagonist)

Next, values leading:

IC50 (Neuromedin-K receptor [1]): 210 nM (antagonist)
SMILES: COc1c(-c2ccccc2)nc2ccccc2c1C(=O)NN(C(C)=O)c1ccccc1

IC50 (Neuromedin-K receptor [1]): 33 nM (antagonist)
SMILES: COC(=O)N(NC(=O)c1c(OC)c(-c2ccccc2)nc2ccccc12)c1ccc(F)cc1

inhibition [2]: 27% | Emax (PXR (NR1I2)): 87%
SMILES: COC(=O)N(NC(=O)c1c(OC)c(-c2ccccc2)nc2c(C(F)(F)F)cccc12)c1ccccc1

Emax (PXR (NR1I2)): 54% | IC50 (Neuromedin-K receptor [1]): 24 nM (antagonist)
SMILES: COC(=O)N(NC(=O)c1c(OC)c(-c2ccc(F)cc2)nc2ccccc12)c1ccccc1

IC50 (Neuromedin-K receptor [1]): 110 nM (antagonist)
SMILES: COC(=O)N(NC(=O)c1c(OC)c(-c2ccccc2F)nc2ccccc12)c1ccccc1

Emax (PXR (NR1I2)): 62% | IC50 (Neuromedin-K receptor [1]): 38 nM (antagonist)
SMILES: COC(=O)N(NC(=O)c1c(OC)c(-c2ccccc2)nc2ccc(F)cc12)c1ccccc1

IC50 (Neuromedin-K receptor [1]): 39 nM (antagonist)
SMILES: COC(=O)N(NC(=O)c1c(O)c(-c2ccccc2)nc2ccccc12)c1ccccc1

Emax (PXR (NR1I2)): 88% | IC50 (Neuromedin-K receptor [1]): 430 nM (antagonist)
SMILES: COC(=O)N(NC(=O)c1c(OC)c(-c2ccccc2)nc2c(Br)cccc12)c1ccccc1

Emax (PXR (NR1I2)): 56% | IC50 (Neuromedin-K receptor [1]): 8.4 nM (antagonist)
SMILES: COC(=O)N(NC(=O)c1c(C)c(-c2ccccc2)nc2ccccc12)c1ccccc1

inhibition [2]: 35% | Emax (PXR (NR1I2)): 87%
SMILES: COC(=O)N(NC(=O)c1c(OC)c(-c2ccccc2)nc2c(C#N)cccc12)c1ccccc1

Emax (PXR (NR1I2)): 44% | IC50 (Neuromedin-K receptor [1]): 91 nM (antagonist)
SMILES: COC(=O)N(NC(=O)c1cc(-c2ccccc2)nc2ccccc12)c1ccccc1

IC50 (Neuromedin-K receptor [1]): 22 nM (antagonist)
SMILES: CCC(=O)N(NC(=O)c1c(OC)c(-c2ccccc2)nc2ccccc12)c1ccccc1

Emax (PXR (NR1I2)): 55% | IC50 (Neuromedin-K receptor [1]): 11 nM (antagonist)
SMILES: COC(=O)N(NC(=O)c1c(OC)c(-c2ccccc2)nc2cccc(F)c12)c1ccccc1

IC50 (Neuromedin-K receptor [1]): 60 nM (antagonist)
SMILES: CCOC(=O)N(NC(=O)c1c(OC)c(-c2ccccc2)nc2ccccc12)c1ccccc1

IC50 (Neuromedin-K receptor [1]): 16 nM (antagonist)
SMILES: CCN(NC(=O)c1c(OC)c(-c2ccccc2)nc2ccccc12)c1ccccc1

Emax (PXR (NR1I2)): 75% | IC50 (Neuromedin-K receptor [1]): 4.1 nM (antagonist)
SMILES: COC(=O)N(NC(=O)c1c(OC)c(-c2ccccc2)nc2c(F)cccc12)c1ccccc1

— ChEMBL document CHEMBL1139722, “N',2-diphenylquinoline-4-carbohydrazide based NK3 receptor antagonists” (Bioorg Med Chem Lett, 2006)
